Measurements from patent US8710061B2, “Compounds for the reduction of β-amyloid production” (Bristol-Myers Squibb Company, priority 2011, dated 2014).
Like-named read-outs stand apart in the source and are kept apart here.

Test system: Aβ42 production in H4 APP751 SWE clone 8.20 cells
Experiment: Cellular assay for inhibition of Aβ1-42 production
Format: cell-based
Conditions: 19 h incubation
Method: Cellular Assays for Inhibition of Aβ1-40 and Aβ1-42 Production
H4 cells stably transfected with APP751 containing the Swedish mutation (H4 APP751 SWE clone 8.20, developed at BMS) were maintained in log phase through twice weekly passage at a 1:20 split. […] Following incubation for 19 h in 5% CO2 at 37° C., plates were briefly centrifuged (1000 rpm, 5 min). A 10 μl aliquot from each well was transferred to a second assay plate (Costar 3709) for Aβ40 measurements. Antibody cocktails were freshly prepared by dilution into 40 mM Tris-HCl (pH 7.4) with 0.2% BSA and added to assay plates. For Aβ42 measurements, antibodies specific for the Aβ42 neoepitope (565, developed at BMS; conjugated to the Wallac reagent (Perkin Elmer)) and the N-terminal sequence of Aβ peptide (26D6, developed at SIBIA; conjugated to […] (Perkin Elmer)) were mixed and 20 μl of the mixture was added to each well of the incubated cell plate yielding a final concentration of 0.8 ng/well 565 and 75 ng/well 26D6. For the Aβ40 measurements, antibodies specific for the Aβ40 neoepitope (TSD, developed at BMS; conjugated to the Wallac reagent (Perkin Elmer)) and 26D6 as described above were mixed and 20 μl of the mixture was added to the 10 μl aliquots which had been removed previously from the cell plate yielding a final concentration of 1.6 ng/well TSD and 17.5 ng/well 26D6. Assay plates containing antibodies were sealed with aluminum foil and incubated overnight at 4° C. Signal was determined using a Viewlux counter (Perkin Elmer) and IC50 values determined using curve fitting in CurveMaster (Excel Fit based).

[1] = read-out: Activity Rating (Aβ42 cellular IC50), class symbol
[2] = read-out: Activity Rating (Aβ42 cellular IC50), given as number

| IC50 [1] | IC50 [2] | SMILES |
| --- | --- | --- |
| 10 to 100 nM | – | CNc1nc(Nc2ccc(C#N)c(OC)c2)nc2c1CCC2c1cccc(OC)c1 (racemic) [Example 7, 2-methoxy-4-(7-(3-methoxyphenyl)-4-(methylamino)-6,7-dihydro-5H-cyclopenta[d]pyrimidin-2-ylamino)benzonitrile] |
| 10 to 100 nM | – | CNc1nc(Nc2ccc(C#N)c(OC)c2)nc2c1CC[C@H]2c1ccc(Cl)cc1F (single isomer, unassigned) [Example 6A] |
| 10 to 100 nM | – | CNc1nc(Nc2ccc(C#N)c(OC)c2)nc2c1CCC2c1ccc(C(F)(F)F)cc1F (centres unmarked) [Example 8, 4-(7-(2-fluoro-4-(trifluoromethyl)phenyl)-4-(methylamino)-6,7-dihydro-5H-cyclopenta[d]pyrimidin-2-ylamino)-2-methoxybenzonitrile] |
| – | 12 nM | CNc1nc(Nc2ccc(C#N)c(OC)c2)nc2c1CCC2c1ccc(OC(F)(F)F)cc1F (centres unmarked) [Example 9, 4-(7-(2-fluoro-4-(trifluoromethoxy)phenyl)-4-(methylamino)-6,7-dihydro-5H-cyclopenta[d]pyrimidin-2-ylamino)-2-methoxybenzonitrile] |

The remaining lines, values behind:

| SMILES | IC50 [1] | IC50 [2] |
| --- | --- | --- |
| CNc1nc(Nc2ccc(C#N)c(OC)c2)nc2c1CC[C@H]2c1ccccc1OC (single isomer, unassigned) [Example 1A] | – | 13 nM |
| CNc1nc(Nc2ccc(C#N)c(OC)c2)nc2c1CC[C@H]2c1ccccc1Cl (single isomer, unassigned) [Example 3A] | 1.5 to 9.9 nM | – |
| CNc1nc(Nc2ccc(C#N)c(OC)c2)nc2c1CC[C@H]2c1ccccc1F (single isomer, unassigned) [Example 4A] | 10 to 100 nM | – |
| CNc1nc(Nc2ccc(C#N)c(OC)c2)nc2c1CC[C@H]2c1c(F)cc(F)cc1F (single isomer, unassigned) [Example 5A] | – | 11 nM |
| CNc1nc(Nc2ccc(C#N)c(OC)c2)nc2c1CC[C@@H]2c1ccccc1OC [Example 1B, (R)-2-methoxy-4-(7-(2-methoxyphenyl)-4-(methylamino)-6,7-dihydro-5H-cyclopenta[d]pyrimidin-2-ylamino)benzonitrile] | 10 to 100 nM | – |
| CNc1nc(Nc2ccc(C#N)c(OC)c2)nc2c1CC[C@@]2(C)c1ccc(F)cc1 [Example 2A, (S)-4-(7-(4-fluorophenyl)-7-methyl-4-(methylamino)-6,7-dihydro-5H-cyclopenta[d]pyrimidin-2-ylamino)-2-methoxybenzonitrile] | – | 200 nM |
| CNc1nc(Nc2ccc(C#N)c(OC)c2)nc2c1CC[C@]2(C)c1ccc(F)cc1 [Example 2B, (R)-4-(7-(4-fluorophenyl)-7-methyl-4-(methylamino)-6,7-dihydro-5H-cyclopenta[d]pyrimidin-2-ylamino)-2-methoxybenzonitrile] | 100 to 1000 nM | – |
